The values below come from paper PMC11233931, “Remodeling tumor‐associated macrophage for anti‐cancer effects by rational design of irreversible inhibition of mitogen‐activated protein kinase‐activated protein kinase 2” (MedComm, 2024).

Holding throughout (experiment): Eurofins kinase selectivity profile against 380 other human recombinant kinases (Table S2)
Assay type in all cases: biochemical

Assay [1] deals with T1, 380 human recombinant protein kinases (Homo sapiens, UniProt Q9BYP7).
T1 construct: purchased Eurofins (Celle Lévescault)
To be noted: WNK3(h), read-out: Inhibition rate (%). An outline of the steps:
(§1)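 The inhibitor was sent to a contract lab and screened at various concentrations against 380 human recombinant protein kinases. This served as a counter-screen for MK2 specificity.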

The target in assay [2] is T2, 380 human recombinant protein kinases (Homo sapiens, UniProt P29320).
T2 construct: purchased Eurofins (Celle Lévescault)
T2 sequence (P29320 21-983): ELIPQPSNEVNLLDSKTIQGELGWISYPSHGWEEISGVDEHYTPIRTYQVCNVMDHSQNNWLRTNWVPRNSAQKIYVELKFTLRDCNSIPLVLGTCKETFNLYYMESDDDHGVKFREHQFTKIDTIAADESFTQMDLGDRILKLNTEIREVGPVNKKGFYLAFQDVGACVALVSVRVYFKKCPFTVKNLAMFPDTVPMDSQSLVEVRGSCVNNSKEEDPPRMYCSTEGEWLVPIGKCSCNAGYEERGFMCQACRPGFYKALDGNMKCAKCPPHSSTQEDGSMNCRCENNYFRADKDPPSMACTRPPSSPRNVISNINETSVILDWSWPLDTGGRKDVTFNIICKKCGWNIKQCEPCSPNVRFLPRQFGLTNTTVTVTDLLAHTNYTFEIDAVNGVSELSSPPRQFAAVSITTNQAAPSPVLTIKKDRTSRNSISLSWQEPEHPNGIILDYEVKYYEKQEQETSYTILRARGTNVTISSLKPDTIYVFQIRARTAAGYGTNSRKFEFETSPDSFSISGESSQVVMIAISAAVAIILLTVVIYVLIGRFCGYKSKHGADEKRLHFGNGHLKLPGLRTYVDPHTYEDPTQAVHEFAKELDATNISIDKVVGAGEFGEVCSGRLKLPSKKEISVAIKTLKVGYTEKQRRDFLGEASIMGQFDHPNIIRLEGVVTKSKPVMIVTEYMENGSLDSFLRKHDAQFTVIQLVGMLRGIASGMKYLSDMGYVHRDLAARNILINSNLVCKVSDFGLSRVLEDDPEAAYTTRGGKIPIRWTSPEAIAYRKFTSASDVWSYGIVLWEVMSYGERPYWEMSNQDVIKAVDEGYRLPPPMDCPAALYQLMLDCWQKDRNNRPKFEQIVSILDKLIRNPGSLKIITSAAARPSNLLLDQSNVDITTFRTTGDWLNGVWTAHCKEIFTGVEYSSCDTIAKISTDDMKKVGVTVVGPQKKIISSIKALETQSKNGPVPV
To be noted: EphA3(h), read-out: Inhibition rate. An outline of the steps:
as §1

Assay [3] has as its target T3, 380 human recombinant protein kinases (Homo sapiens, UniProt P49674).
T3 construct: purchased Eurofins (Celle Lévescault)
To be noted: CK1ε(h), read-out: Inhibition rate. An outline of the steps: as §1

The target of assay [4] is T4, 380 human recombinant protein kinases (Homo sapiens, UniProt P36507).
T4 construct: purchased Eurofins (Celle Lévescault)
To be noted: MEK2(h), read-out: Inhibition rate. An outline of the steps: as §1

The target of assay [5] is T5, 380 human recombinant protein kinases (Homo sapiens, UniProt O94806).
T5 construct: purchased Eurofins (Celle Lévescault)
T5 sequence (O94806 1-890): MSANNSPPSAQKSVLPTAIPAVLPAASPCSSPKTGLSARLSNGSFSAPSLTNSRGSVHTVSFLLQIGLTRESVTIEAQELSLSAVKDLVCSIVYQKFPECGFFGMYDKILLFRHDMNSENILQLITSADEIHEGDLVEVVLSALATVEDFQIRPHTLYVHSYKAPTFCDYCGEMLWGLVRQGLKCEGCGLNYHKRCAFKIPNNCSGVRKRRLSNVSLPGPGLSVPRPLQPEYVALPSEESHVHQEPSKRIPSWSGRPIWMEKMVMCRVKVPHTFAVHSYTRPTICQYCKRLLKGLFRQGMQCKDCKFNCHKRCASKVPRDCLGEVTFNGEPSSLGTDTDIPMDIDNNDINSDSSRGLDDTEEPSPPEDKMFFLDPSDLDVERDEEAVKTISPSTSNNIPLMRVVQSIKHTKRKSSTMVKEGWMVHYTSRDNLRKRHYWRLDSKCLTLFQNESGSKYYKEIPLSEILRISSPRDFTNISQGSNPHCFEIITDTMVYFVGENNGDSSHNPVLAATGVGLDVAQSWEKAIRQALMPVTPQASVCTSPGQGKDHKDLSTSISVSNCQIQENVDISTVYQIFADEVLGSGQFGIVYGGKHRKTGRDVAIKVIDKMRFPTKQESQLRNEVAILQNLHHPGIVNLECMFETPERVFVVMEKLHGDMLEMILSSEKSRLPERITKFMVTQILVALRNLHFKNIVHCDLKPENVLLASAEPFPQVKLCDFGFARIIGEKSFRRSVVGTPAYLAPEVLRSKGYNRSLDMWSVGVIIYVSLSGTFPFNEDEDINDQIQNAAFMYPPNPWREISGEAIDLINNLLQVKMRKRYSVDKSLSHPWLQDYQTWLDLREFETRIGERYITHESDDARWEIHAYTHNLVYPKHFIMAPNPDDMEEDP
The conditions noted are these: PKD3(h), read-out: Inhibition rate. An outline of the steps: as §1

The target of assay [6] is T6, 380 human recombinant protein kinases (Homo sapiens, UniProt O95819).
T6 construct: purchased Eurofins (Celle Lévescault)
The conditions noted are these: MAP4K4(h), read-out: Inhibition rate. An outline of the steps: as §1

Assay [7] concerns the target T7, 380 human recombinant protein kinases (Homo sapiens, UniProt Q02779).
T7 construct: purchased Eurofins (Celle Lévescault)
To be noted: MLK2(h), read-out: Inhibition rate. Summed up: as §1

T4 sequence (P36507 whole entry): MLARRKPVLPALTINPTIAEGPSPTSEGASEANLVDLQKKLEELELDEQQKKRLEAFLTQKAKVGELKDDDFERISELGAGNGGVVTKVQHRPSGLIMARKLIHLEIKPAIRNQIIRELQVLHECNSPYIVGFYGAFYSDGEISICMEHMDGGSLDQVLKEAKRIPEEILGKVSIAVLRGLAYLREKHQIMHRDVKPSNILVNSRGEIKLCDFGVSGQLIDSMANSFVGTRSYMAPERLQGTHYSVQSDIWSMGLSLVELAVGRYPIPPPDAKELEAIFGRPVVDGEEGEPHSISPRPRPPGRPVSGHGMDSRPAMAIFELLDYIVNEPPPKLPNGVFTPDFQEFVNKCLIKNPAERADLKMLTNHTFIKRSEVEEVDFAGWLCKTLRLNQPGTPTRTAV
T7 sequence (Q02779 whole entry): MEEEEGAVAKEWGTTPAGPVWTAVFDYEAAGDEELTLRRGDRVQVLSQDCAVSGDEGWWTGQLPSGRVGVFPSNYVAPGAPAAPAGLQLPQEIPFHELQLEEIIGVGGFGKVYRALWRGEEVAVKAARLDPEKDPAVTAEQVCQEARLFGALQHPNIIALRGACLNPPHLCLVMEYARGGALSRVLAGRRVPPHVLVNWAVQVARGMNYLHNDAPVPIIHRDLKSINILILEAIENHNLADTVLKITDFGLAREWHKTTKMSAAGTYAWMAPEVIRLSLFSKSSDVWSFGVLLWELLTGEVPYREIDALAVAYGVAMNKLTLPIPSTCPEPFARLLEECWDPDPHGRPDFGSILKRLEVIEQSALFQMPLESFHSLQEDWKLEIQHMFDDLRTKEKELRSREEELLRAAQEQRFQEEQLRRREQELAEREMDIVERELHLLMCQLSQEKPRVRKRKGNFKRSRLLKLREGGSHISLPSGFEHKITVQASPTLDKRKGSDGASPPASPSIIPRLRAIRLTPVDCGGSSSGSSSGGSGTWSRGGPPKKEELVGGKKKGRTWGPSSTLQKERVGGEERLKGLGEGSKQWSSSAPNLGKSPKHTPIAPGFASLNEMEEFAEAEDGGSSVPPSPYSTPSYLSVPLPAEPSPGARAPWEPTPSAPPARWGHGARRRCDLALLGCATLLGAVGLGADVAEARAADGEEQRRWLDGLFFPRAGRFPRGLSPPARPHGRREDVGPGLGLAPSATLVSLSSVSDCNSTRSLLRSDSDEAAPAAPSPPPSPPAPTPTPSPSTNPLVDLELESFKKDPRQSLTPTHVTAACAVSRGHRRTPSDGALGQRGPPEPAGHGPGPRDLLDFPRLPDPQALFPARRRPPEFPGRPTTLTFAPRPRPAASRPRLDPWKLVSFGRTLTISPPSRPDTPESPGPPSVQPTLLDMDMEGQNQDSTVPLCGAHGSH
T6 sequence (O95819 whole entry): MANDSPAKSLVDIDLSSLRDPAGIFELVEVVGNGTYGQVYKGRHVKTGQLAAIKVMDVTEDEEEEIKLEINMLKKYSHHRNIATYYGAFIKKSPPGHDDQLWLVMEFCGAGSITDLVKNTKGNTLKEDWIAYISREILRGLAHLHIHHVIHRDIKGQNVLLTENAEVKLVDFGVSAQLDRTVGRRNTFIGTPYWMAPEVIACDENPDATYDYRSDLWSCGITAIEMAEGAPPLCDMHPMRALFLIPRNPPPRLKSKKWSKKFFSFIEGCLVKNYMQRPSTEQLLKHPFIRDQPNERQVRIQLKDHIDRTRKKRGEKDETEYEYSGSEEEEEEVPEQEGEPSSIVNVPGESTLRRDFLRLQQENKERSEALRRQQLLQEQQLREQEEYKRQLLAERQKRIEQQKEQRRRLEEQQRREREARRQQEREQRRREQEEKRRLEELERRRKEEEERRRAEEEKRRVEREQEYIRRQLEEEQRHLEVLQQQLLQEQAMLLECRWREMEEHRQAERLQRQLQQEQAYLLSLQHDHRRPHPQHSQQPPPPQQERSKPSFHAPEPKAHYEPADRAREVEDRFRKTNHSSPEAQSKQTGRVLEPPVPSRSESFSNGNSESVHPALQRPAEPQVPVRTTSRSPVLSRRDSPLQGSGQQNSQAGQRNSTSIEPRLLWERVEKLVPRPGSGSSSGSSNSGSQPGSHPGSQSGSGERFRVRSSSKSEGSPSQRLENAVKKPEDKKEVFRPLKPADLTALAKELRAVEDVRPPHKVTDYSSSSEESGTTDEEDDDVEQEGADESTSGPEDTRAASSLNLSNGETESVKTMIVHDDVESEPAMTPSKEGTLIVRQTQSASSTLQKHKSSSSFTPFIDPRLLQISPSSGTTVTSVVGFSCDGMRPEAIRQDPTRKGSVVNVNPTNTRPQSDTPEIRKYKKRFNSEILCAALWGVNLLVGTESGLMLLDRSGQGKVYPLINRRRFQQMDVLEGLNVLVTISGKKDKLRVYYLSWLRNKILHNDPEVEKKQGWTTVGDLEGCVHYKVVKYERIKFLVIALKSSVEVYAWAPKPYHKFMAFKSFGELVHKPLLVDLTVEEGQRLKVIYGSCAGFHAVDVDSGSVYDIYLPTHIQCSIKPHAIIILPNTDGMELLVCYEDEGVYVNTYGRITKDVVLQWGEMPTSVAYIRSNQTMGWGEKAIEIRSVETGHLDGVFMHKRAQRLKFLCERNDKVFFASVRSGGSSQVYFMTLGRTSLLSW
T3 sequence (P49674 whole entry): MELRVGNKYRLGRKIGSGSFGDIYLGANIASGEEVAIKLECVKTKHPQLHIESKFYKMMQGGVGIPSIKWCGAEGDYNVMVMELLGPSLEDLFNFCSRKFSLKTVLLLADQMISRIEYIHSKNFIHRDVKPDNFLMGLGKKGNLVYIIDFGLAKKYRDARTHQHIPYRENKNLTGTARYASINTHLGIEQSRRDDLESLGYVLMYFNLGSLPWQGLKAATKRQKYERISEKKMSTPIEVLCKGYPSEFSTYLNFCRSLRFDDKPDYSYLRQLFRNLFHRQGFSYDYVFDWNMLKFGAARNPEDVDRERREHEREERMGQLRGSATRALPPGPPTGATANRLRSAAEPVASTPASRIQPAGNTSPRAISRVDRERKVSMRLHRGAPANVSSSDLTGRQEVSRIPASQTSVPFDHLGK
T1 sequence (Q9BYP7 whole entry): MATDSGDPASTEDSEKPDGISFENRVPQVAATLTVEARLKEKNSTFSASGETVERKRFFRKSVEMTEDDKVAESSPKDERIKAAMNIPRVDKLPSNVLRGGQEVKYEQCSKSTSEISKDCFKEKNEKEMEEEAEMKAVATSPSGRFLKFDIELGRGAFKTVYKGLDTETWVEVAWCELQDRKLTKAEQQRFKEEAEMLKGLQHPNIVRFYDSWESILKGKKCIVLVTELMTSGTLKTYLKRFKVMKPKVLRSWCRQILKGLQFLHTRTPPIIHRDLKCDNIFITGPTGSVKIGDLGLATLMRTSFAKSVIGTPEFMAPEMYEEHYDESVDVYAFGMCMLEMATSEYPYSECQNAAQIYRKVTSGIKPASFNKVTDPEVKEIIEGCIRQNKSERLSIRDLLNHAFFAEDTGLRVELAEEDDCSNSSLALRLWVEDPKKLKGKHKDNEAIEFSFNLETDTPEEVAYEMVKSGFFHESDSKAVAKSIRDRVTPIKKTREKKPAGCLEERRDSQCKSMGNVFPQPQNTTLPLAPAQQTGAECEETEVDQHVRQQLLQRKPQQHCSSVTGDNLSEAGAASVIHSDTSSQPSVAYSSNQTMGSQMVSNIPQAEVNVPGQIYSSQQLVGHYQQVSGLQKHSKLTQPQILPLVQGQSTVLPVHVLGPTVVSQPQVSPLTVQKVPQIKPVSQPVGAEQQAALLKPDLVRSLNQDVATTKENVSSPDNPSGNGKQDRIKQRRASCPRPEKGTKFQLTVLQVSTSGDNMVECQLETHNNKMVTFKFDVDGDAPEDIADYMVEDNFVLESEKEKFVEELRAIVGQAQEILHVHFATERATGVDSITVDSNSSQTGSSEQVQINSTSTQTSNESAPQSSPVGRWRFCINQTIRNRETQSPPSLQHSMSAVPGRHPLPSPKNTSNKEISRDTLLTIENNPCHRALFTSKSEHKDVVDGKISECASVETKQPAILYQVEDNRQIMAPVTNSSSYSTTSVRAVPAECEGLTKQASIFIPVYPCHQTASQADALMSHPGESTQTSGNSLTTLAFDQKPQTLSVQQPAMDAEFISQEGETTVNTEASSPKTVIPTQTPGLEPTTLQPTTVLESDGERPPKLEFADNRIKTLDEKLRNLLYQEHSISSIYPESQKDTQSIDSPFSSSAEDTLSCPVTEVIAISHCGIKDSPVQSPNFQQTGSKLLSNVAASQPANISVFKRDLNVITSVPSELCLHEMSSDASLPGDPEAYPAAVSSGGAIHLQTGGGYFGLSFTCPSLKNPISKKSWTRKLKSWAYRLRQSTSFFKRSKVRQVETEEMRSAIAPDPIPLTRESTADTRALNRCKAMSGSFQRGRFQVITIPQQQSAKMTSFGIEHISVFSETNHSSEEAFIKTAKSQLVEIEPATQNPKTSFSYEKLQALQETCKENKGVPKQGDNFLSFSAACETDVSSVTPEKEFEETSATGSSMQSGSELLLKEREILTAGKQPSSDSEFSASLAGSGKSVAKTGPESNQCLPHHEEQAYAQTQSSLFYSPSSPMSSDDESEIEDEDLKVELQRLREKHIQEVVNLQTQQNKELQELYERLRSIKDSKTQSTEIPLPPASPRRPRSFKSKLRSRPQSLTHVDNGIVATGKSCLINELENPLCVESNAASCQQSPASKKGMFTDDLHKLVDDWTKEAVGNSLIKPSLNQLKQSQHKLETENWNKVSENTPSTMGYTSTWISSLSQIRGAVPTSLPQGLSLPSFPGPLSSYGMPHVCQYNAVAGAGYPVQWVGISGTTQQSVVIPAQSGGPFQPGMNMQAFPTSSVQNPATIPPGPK

For orientation: inhibition means the change of the read-out against control, counted positive when it falls. `C=CC(=O)Nc1cc(-c2cc(-c3cc4c([nH]3)CCNC4=O)ccn2)ccc1OC(F)(F)F` [compound 11]: the inhibition at 0.01 µM was 0% in assay [1] (10 nM); 15% in assay [2] (10 nM); -5% in assay [3] (10 nM); -4% in assay [4] (10 nM); 4% in assay [5] (10 nM); -11% in assay [6] (10 nM). The inhibition at 0.01 µM in assay [7] (10 nM) is -5%. Also, the inhibition at 0.1 µM was 7% in assay [1] (100 nM); -1% in assay [2] (100 nM); 4% in assay [3] (100 nM); 4% in assay [4] (100 nM); 15% in assay [5] (100 nM); -1% in assay [6] (100 nM). Moreover, the inhibition at 0.1 µM in assay [7] (100 nM) was 2%. Besides, the inhibition at 1 µM in assay [1] (1000 nM) is 9%; in assay [2] (1000 nM), -10%; in assay [3] (1000 nM) it was 34%; in assay [4] (1000 nM) it was 6%; in assay [5] (1000 nM), 55%; in assay [6] (1000 nM), 33%. In addition, in assay [7] (1000 nM), the inhibition at 1 µM came to 10%.
